Measurements: doi:10.1101/2025.06.07.658027v2 (biorxiv, 2025)

Experiments:
Experiment in all cases: two-electrode voltage clamp, Xenopus oocytes
Type in all cases: cell-based
AalbOR10 = target: T1, AalbOR10 (Aedes albopictus, UniProt A0ABM1Y0Z3)
T1 sequence (A0ABM1Y0Z3 1-403): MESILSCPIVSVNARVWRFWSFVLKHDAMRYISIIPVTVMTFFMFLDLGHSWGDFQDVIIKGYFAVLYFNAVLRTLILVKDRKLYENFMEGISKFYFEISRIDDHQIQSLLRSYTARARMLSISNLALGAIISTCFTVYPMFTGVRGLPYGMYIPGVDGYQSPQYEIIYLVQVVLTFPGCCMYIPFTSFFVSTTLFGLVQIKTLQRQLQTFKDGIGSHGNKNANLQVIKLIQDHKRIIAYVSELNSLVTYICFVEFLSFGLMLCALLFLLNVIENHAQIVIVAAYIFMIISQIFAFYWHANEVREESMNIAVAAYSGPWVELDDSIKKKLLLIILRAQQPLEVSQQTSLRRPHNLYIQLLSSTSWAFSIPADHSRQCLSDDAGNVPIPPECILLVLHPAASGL
T1 sequence (A0ABM1ZN50 1-479 partner): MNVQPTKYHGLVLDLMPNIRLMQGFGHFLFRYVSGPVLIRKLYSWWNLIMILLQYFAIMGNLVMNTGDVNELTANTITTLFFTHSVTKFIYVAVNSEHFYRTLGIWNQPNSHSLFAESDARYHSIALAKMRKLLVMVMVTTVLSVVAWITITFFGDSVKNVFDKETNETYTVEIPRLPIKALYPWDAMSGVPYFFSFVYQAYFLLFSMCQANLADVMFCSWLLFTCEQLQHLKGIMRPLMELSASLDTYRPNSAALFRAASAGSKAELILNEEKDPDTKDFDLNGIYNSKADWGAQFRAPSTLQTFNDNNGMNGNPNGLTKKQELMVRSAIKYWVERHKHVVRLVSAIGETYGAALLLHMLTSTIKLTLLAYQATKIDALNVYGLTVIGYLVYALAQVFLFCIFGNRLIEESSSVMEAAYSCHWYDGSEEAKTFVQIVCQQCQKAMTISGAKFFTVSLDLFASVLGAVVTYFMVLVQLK

AalbOR2 = target: T2, AalbOR2 (Aedes albopictus, UniProt A0ABM1YVB6)
T2 sequence (A0ABM1YVB6 1-376): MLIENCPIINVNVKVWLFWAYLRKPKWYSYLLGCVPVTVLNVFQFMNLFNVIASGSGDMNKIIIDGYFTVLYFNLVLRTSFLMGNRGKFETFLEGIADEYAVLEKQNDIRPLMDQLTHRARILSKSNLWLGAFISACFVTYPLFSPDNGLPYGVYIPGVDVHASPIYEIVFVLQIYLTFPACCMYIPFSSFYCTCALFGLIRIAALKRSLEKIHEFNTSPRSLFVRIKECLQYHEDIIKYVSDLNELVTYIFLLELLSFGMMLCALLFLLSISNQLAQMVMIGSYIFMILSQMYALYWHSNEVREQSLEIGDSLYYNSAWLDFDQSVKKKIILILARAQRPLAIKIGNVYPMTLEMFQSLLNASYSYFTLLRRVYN
T2 sequence (A0ABM1ZN50 1-479 partner): T1 sequence (A0ABM1ZN50 1-479 partner)

AalbOR9 = target: T3, AalbOR9 (Aedes albopictus, UniProt A0ABM1YMM4)
T3 sequence (A0ABM1YMM4 1-377): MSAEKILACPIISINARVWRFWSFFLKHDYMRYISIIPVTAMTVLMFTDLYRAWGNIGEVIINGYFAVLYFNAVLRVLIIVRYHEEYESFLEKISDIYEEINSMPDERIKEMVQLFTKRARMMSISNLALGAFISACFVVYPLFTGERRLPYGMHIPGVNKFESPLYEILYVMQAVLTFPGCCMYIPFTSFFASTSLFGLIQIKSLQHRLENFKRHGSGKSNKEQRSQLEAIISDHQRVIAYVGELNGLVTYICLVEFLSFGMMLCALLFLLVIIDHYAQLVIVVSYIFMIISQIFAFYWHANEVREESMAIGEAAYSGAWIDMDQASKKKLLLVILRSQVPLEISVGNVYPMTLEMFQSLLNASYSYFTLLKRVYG
T3 sequence (A0ABM1ZN50 1-479 partner): T1 sequence (A0ABM1ZN50 1-479 partner)

Row | EC50 (AalbOR10) | EC50 (AalbOR2) | EC50 (AalbOR9) | SMILES
1 | 23.7 µM | 0.77 µM | 1.7 µM | c1ccc2[nH]ccc2c1 [indole]
2 | 3.9 µM | 10.1 µM | 0.054 µM | Cc1c[nH]c2ccccc12 [skatole]
